In brackets after ≈: the same amount, converted by molar mass. Bridge positions count the residues as written; N and C are the ends. Square brackets hold non-standard residues; d marks the D form. Peptide text beside a SMILES is read from it. * marks the point of attachment. X1 = CC[C@H](C)CCCCC(=O)*; Dab = NCC[C@H](N)C(=O)O
What was measured:
[1] = system: Acinetobacter baumannii; test: Antibacterial activity against Acinetobacter baumannii ATCC 19606 assessed as inhibition of bacterial growth by CLSI protocol based method; assay type: functional
[2] = system: Escherichia coli; test: Antibacterial activity against Escherichia coli ATCC 25922 assessed as inhibition of bacterial growth by CLSI protocol based method; assay type: functional
[3] = system: Escherichia coli; test: Antibacterial activity against ESBL positive Escherichia coli ATCC 35218 assessed as inhibition of bacterial growth by CLSI protocol based method; assay type: functional
[4] = system: Klebsiella pneumoniae; test: Antibacterial activity against Klebsiella pneumoniae ATCC 700603 assessed as inhibition of bacterial growth by CLSI protocol based method; assay type: functional
[5] = system: Klebsiella pneumoniae; test: Antibacterial activity against Klebsiella pneumoniae BAA ATCC 1706 assessed as inhibition of bacterial growth by CLSI protocol based method; assay type: functional
[6] = system: Pseudomonas aeruginosa; test: Antibacterial activity Pseudomonas aeruginosa ATCC 27853 assessed as inhibition of bacterial growth by CLSI protocol based method; assay type: functional
[7] = system: Pseudomonas aeruginosa; test: Antibacterial activity Pseudomonas aeruginosa PAO1 assessed as inhibition of bacterial growth by CLSI protocol based method; assay type: functional
[8] = system: Acinetobacter baumannii; test: Antibacterial activity against multi-drug resistant Acinetobacter baumannii clinical isolate 5 assessed as inhibition of bacterial growth by CLSI protocol based method; assay type: functional
[9] = system: Acinetobacter baumannii; test: Antibacterial activity against multi-drug resistant Acinetobacter baumannii clinical isolate 10 assessed as inhibition of bacterial growth by CLSI protocol based method; assay type: functional
[10] = system: Acinetobacter baumannii; test: Antibacterial activity against multi-drug resistant Acinetobacter baumannii clinical isolate 2 assessed as inhibition of bacterial growth by CLSI protocol based method; assay type: functional
[11] = system: Acinetobacter baumannii; test: Antibacterial activity against multi-drug resistant Acinetobacter baumannii clinical isolate 4 assessed as inhibition of bacterial growth by CLSI protocol based method; assay type: functional
[12] = system: Acinetobacter baumannii; test: Antibacterial activity against multi-drug resistant Acinetobacter baumannii clinical isolate 51 assessed as inhibition of bacterial growth by CLSI protocol based method; assay type: functional
[13] = system: Acinetobacter baumannii; test: Antibacterial activity against multi-drug resistant Acinetobacter baumannii clinical isolate 14 assessed as inhibition of bacterial growth by CLSI protocol based method; assay type: functional
[14] = system: Acinetobacter baumannii; test: Antibacterial activity against multi-drug resistant Acinetobacter baumannii clinical isolate 1 assessed as inhibition of bacterial growth by CLSI protocol based method; assay type: functional
[15] = system: Acinetobacter baumannii; test: Antibacterial activity against multi-drug resistant Acinetobacter baumannii clinical isolate 43 assessed as inhibition of bacterial growth by CLSI protocol based method; assay type: functional
[16] = system: Escherichia coli; test: Antibacterial activity against multi-drug resistant Escherichia coli clinical isolate 1 assessed as inhibition of bacterial growth by CLSI protocol based method; assay type: functional
[17] = system: Escherichia coli; test: Antibacterial activity against Escherichia coli CG-4 expressing MCR-1 and NDM-1 assessed as inhibition of bacterial growth by CLSI protocol based method; assay type: functional
[18] = system: Escherichia coli; test: Antibacterial activity against Escherichia coli ATCC 25922 infected in Galleria mellonella larvae assessed as survival rate of larvae at 1 microg/ml relative to control; assay type: functional
[19] = system: Acinetobacter baumannii; test: Antibacterial activity against Acinetobacter baumannii ATCC 19606 infected in Galleria mellonella larvae assessed as survival rate of larvae at 1 microg/ml measured after 96 hrs relative to control; assay type: functional
[20] = system: Acinetobacter baumannii; test: Synergistic antibacterial activity against Acinetobacter baumannii ATCC 19606 assessed as inhibition of bacterial growth by measuring polymyxin B MIC by checkerboard assay; assay type: functional
[21] = system: Acinetobacter baumannii; test: Synergistic antibacterial activity against multi-drug resistant Acinetobacter baumannii clinical isolate 5 assessed as inhibition of bacterial growth by measuring polymyxin B MIC by checkerboard assay; assay type: functional
[22] = system: Acinetobacter baumannii; test: Synergistic antibacterial activity against multi-drug resistant Acinetobacter baumannii clinical isolate 14 assessed as inhibition of bacterial growth by measuring polymyxin B MIC by checkerboard assay; assay type: functional
[23] = system: Acinetobacter baumannii; test: Synergistic antibacterial activity against multi-drug resistant Acinetobacter baumannii clinical isolate 1 assessed as inhibition of bacterial growth by measuring polymyxin B MIC by checkerboard assay; assay type: functional
[24] = system: Acinetobacter baumannii; test: Synergistic antibacterial activity against multi-drug resistant Acinetobacter baumannii clinical isolate 43 assessed as inhibition of bacterial growth by measuring polymyxin B MIC by checkerboard assay; assay type: functional
[25] = system: Escherichia coli; test: Synergistic antibacterial activity against Escherichia coli ATCC 25922 assessed as inhibition of bacterial growth by measuring polymyxin B MIC by checkerboard assay; assay type: functional
[26] = system: Escherichia coli; test: Synergistic antibacterial activity against Escherichia coli ATCC 35218 assessed as inhibition of bacterial growth by measuring polymyxin B MIC by checkerboard assay; assay type: functional; settings: Escherichia coli, ATCC 35218; read-out: MIC
[27] = system: Escherichia coli; test: Synergistic antibacterial activity against multi-drug resistant Escherichia coli clinical isolate 1 assessed as inhibition of bacterial growth by measuring polymyxin B MIC by checkerboard assay; assay type: functional
[28] = system: Escherichia coli; test: Synergistic antibacterial activity against Escherichia coli CG-4 expressing MCR-1 and NDM-1 assessed as inhibition of bacterial growth by measuring polymyxin B MIC by checkerboard assay; assay type: functional
[29] = system: Acinetobacter baumannii; test: Synergistic antibacterial activity against Acinetobacter baumannii ATCC 19606 assessed as inhibition of bacterial growth in presence of polymyxin B by checkerboard assay; assay type: functional
[30] = system: Acinetobacter baumannii; test: Synergistic antibacterial activity against multi-drug resistant Acinetobacter baumannii clinical isolate 5 assessed as inhibition of bacterial growth in presence of polymyxin B by checkerboard assay; assay type: functional
[31] = system: Acinetobacter baumannii; test: Synergistic antibacterial activity against multi-drug resistant Acinetobacter baumannii clinical isolate 14 assessed as inhibition of bacterial growth in presence of polymyxin B by checkerboard assay; assay type: functional
[32] = system: Acinetobacter baumannii; test: Synergistic antibacterial activity against multi-drug resistant Acinetobacter baumannii clinical isolate 1 assessed as inhibition of bacterial growth in presence of polymyxin B by checkerboard assay; assay type: functional
[33] = system: Acinetobacter baumannii; test: Synergistic antibacterial activity against multi-drug resistant Acinetobacter baumannii clinical isolate 43 assessed as inhibition of bacterial growth in presence of polymyxin B by checkerboard assay; assay type: functional
[34] = system: Escherichia coli; test: Synergistic antibacterial activity against Escherichia coli ATCC 25922 assessed as inhibition of bacterial growth in presence of polymyxin B by checkerboard assay; assay type: functional
[35] = system: Escherichia coli; test: Synergistic antibacterial activity against Escherichia coli ATCC 35218 assessed as inhibition of bacterial growth in presence of polymyxin B by checkerboard assay; assay type: functional
[36] = system: Escherichia coli; test: Synergistic antibacterial activity against multi-drug resistant Escherichia coli clinical isolate 1 assessed as inhibition of bacterial growth in presence of polymyxin B by checkerboard assay; assay type: functional
[37] = system: Escherichia coli; test: Synergistic antibacterial activity against Escherichia coli CG-4 expressing MCR-1 and NDM-1 assessed as inhibition of bacterial growth in presence of polymyxin B by checkerboard assay; assay type: functional
[38] = system: Acinetobacter baumannii; test: Synergistic antibacterial activity against Acinetobacter baumannii ATCC 19606 assessed as fractional inhibitory concentration index in presence of polymyxin B by checkerboard assay; assay type: functional
[39] = system: Acinetobacter baumannii; test: Synergistic antibacterial activity against multi-drug resistant Acinetobacter baumannii clinical isolate 1 assessed as fractional inhibitory concentration index in presence of polymyxin B by checkerboard assay; assay type: functional
[40] = system: Acinetobacter baumannii; test: Synergistic antibacterial activity against multi-drug resistant Acinetobacter baumannii clinical isolate 43 assessed as fractional inhibitory concentration index in presence of polymyxin B by checkerboard assay; assay type: functional
[41] = system: Escherichia coli; test: Synergistic antibacterial activity against Escherichia coli ATCC 25922 assessed as fractional inhibitory concentration index in presence of polymyxin B by checkerboard assay; assay type: functional
[42] = system: Escherichia coli; test: Synergistic antibacterial activity against Escherichia coli ATCC 35218 assessed as fractional inhibitory concentration index in presence of polymyxin B by checkerboard assay; assay type: functional
[43] = system: Escherichia coli; test: Synergistic antibacterial activity against multi-drug resistant Escherichia coli clinical isolate 1 assessed as fractional inhibitory concentration index in presence of polymyxin B by checkerboard assay; assay type: functional
[44] = system: Escherichia coli; test: Synergistic antibacterial activity against Escherichia coli CG-4 expressing MCR-1 and NDM-1 assessed as fractional inhibitory concentration index in presence of polymyxin B by checkerboard assay; assay type: functional
[45] = Binding affinity to His-tagged LptA (unknown origin) extracted from Escherichia coli BL21 (DE3) cells assessed as dissociation constant by BLI analysis; set-up: species or system Bacteria
[46] = Binding affinity to His-tagged LptC (unknown origin) extracted from Escherichia coli BL21 (DE3) cells assessed as dissociation constant by BLI analysis; set-up: species or system Bacteria

For `NCC[C@H](O)C(=O)N[C@@H]1C[C@H](N)[C@@H](O[C@H]2O[C@H](CN)[C@@H](O)[C@H](O)[C@H]2O)[C@H](O)[C@H]1O[C@H]1O[C@H](CO)[C@@H](O)[C@H](N)[C@H]1O` [AMIKACIN], the MIC [1] was 0.78 µg/mL (≈ 1.33 µM), the MIC [2] was 6.25 µg/mL (≈ 10.7 µM) and the MIC [3] was 1.56 µg/mL (≈ 2.66 µM). It also gave an MIC [4] of 0.78 µg/mL (≈ 1.33 µM), an MIC [5] of 50 µg/mL (≈ 85.4 µM) and an MIC [6] of 0.78 µg/mL (≈ 1.33 µM). It also gave an MIC [7] of 0.2 µg/mL (≈ 0.342 µM), an MIC [8] greater than 100 µg/mL and an MIC [9] greater than 100 µg/mL. The MIC [10] was greater than 100 µg/mL, the MIC [11] was greater than 100 µg/mL and the MIC [12] was greater than 100 µg/mL. The MIC [13] was 50 µg/mL (≈ 85.4 µM), the MIC [14] was greater than 100 µg/mL and the MIC [15] was greater than 100 µg/mL. For the same compound, the MIC [16] was greater than 100 µg/mL and the MIC [17] was 100 µg/mL (≈ 171 µM).
For `CC(C)CCCCC(=O)N[C@@H](CCN)C(=O)N[C@H](C(=O)N[C@@H](CCN)C(=O)N[C@H]1CCNC(=O)[C@H]([C@@H](C)O)NC(=O)[C@H](CCN)NC(=O)[C@H](CCN)NC(=O)[C@H](CC(C)C)NC(=O)[C@@H](Cc2ccccc2)NC(=O)[C@H](CCN)NC1=O)[C@@H](C)O.CC[C@H](C)CCCCC(=O)N[C@@H](CCN)C(=O)N[C@H](C(=O)N[C@@H](CCN)C(=O)N[C@H]1CCNC(=O)[C@H]([C@@H](C)O)NC(=O)[C@H](CCN)NC(=O)[C@H](CCN)NC(=O)[C@H](CC(C)C)NC(=O)[C@@H](Cc2ccccc2)NC(=O)[C@H](CCN)NC1=O)[C@@H](C)O` (X1-[Dab]T[Dab][Dab][Dab][dF]L[Dab][Dab]T; lactam 4-C), the MIC [1] was 0.05 µg/mL, the MIC [2] was 0.05 µg/mL and the MIC [3] was 0.1 µg/mL. For the same compound, the MIC [4] was 0.2 µg/mL, the MIC [6] was 6.25 µg/mL and the MIC [8] was 0.05 µg/mL. The MIC [9] was 0.05 µg/mL, the MIC [10] was 0.39 µg/mL and the MIC [11] was 0.39 µg/mL. The MIC [12] was 0.78 µg/mL, the MIC [13] was 0.39 µg/mL and the MIC [14] was greater than 100 µg/mL. For the same compound, the MIC [15] was greater than 100 µg/mL, the MIC [16] was 12.5 µg/mL and the MIC [17] was 6.25 µg/mL. The survival at 1 µg/mL [18] was 40% and the survival at 1 µg/mL [19] was 20%.
`CN(C)c1ccc(/C=C/c2cc(C(C)(C)C)[o+]c(C(C)(C)C)c2)cc1.O=S(=O)([O-])C(F)(F)F` showed an MIC [1] of 12.5 µg/mL, an MIC [2] of 12.5 µg/mL and an MIC [3] of 12.5 µg/mL. It also gave an MIC [4] greater than 100 µg/mL, an MIC [5] greater than 100 µg/mL and an MIC [6] greater than 100 µg/mL. For the same compound, the MIC [7] was greater than 100 µg/mL, the MIC [8] was 50 µg/mL and the MIC [9] was 25 µg/mL. It also gave an MIC [10] of 25 µg/mL, an MIC [11] of 25 µg/mL and an MIC [12] of 50 µg/mL. It also gave an MIC [13] of 25 µg/mL, an MIC [14] of 100 µg/mL and an MIC [15] of 50 µg/mL. For the same compound, the MIC [16] was 100 µg/mL, the MIC [17] was 25 µg/mL and the MIC [20] was 0.006 µg/mL. It also gave an MIC [21] of 0.006 µg/mL, an MIC [22] of 0.006 µg/mL and an MIC [23] of 0.05 µg/mL. The MIC [24] was 1 10^-4 ug/ml, the MIC [25] was 7.8 10^-4 ug/ml and the MIC [26] was 0.25 µg/mL. It also gave an MIC [27] of 0.2 µg/mL, an MIC [28] of 0.39 µg/mL and an MIC [29] of 1.56 µg/mL. It also gave an MIC [30] of 12.5 µg/mL, an MIC [31] of 6.25 µg/mL and an MIC [32] of 3.13 µg/mL. It also gave an MIC [33] of 12.5 µg/mL, an MIC [34] of 6.25 µg/mL and an MIC [35] of 1.56 µg/mL. The MIC [36] was 3.13 µg/mL, the MIC [37] was 3.13 µg/mL and the “fractional inhibitory concentration index (FICI)” value [38] was 0.188. For the same compound, the “fractional inhibitory concentration index (FICI)” value [39] was less than 0.032, the “fractional inhibitory concentration index (FICI)” value [40] was less than 0.25 and the “fractional inhibitory concentration index (FICI)” value [41] was 0.266. For the same compound, the “fractional inhibitory concentration index (FICI)” value [42] was 0.375, the “fractional inhibitory concentration index (FICI)” value [43] was 0.047 and the “fractional inhibitory concentration index (FICI)” value [44] was 0.188. The Kd [45] was 160 µM and the Kd [46] was 17 µM.
